In BigSolDB 2.1:

O=C1CCC(c2ccccc2)=NN1
solubility (mole fraction)
Settings | in DMSO | in ethanol | in ethyl acetate | in ethylene glycol | in isopropanol | in n-butanol | in propylene glycol | in sec-butanol | in transcutol | in water
293.2 K | 0.637 | 0.00407 | 0.00878 | 0.0074 | 0.0031 | 0.00474 | 0.00654 | 0.00512 | 0.423 | 7.24e-07
298.2 K | 0.647 | 0.00466 | 0.00994 | 0.00836 | 0.00378 | 0.0053 | 0.00732 | 0.00555 | 0.451 | 9.18e-07
303.2 K | 0.658 | 0.00529 | 0.0111 | 0.00921 | 0.0046 | 0.00601 | 0.00846 | 0.00618 | 0.476 | 1.13e-06
308.2 K | 0.668 | 0.00607 | 0.0128 | 0.0101 | 0.00555 | 0.0067 | 0.00951 | 0.00687 | 0.502 | 1.37e-06
313.2 K | 0.677 | 0.00696 | 0.0145 | 0.0109 | 0.00651 | 0.00768 | 0.0103 | 0.00778 | 0.524 | 1.61e-06

Settings | solubility (mole fraction)
in PEG-400, 293.2 K | 0.0585
in PEG-400, 298.2 K | 0.0646
in PEG-400, 303.2 K | 0.0709
in PEG-400, 308.2 K | 0.078
in PEG-400, 313.2 K | 0.0847
